# Read-outs that look alike come from different tables or passages of the source.
# Assays:
# [1] = biological target: T1, MCP-1 receptor (300-19 cell membranes) (Homo sapiens, UniProt P41597); assay: Inhibition of binding of 125I-MCP-1 to 300-19 cell membranes
# T1 construct: host or cells: 300-19 cells (membrane preparation)
# Protocol: Compounds were also assayed for their ability to inhibit the binding of radiolabeled MCP-1 to cell membranes. The materials and methods are set out below.
# Membrane Preparation. 300-19 cells were harvested by centrifugation and washed with PBS (Dulbecco's phosphate-buffered saline w/o Ca and Mg). Cells were frozen at −80° C. overnight then resuspensed in ice cold lysis buffer (5 mM HEPES, 2 mM EDTA, 10 μg/mL of leupeptin, aprotinin, and chymostatin, and 200 μg/mL PMSF). The cell suspension was centrifuged at 1,000 rpm for 10 minutes and the supernatant was transferred and centrifuged at 14,000 rpm for 45 minutes at 4° C. then discarded. The resulting pellet was resuspended in stock buffer (10 mM HEPES, 300 mM sucrose, 20 μg/mL of leupeptin, aprotinin, and chymostatin, and 200 μg/mL PMSF), aliquoted, and frozen at −80° C. until use. Typical binding assays used 1.0 μg/well protein.
# Prepared membranes were resuspended in binding buffer (50 mM Tris, 10 mM MgCl2, 1 mM EDTA pH 7.4) at 10 μg/mL protein. Membranes (1.0 μg/well) were incubated with ^125I-MCP-1 (0.15 nM) in the absence or presence of unlabeled chemokine (465 nM) or a compound of Examples 1–11, 14, 16, 19, 22, 27–30, 33–34, or [bis-(4-chloro-phenyl)-methanesulfonyl]-acetic acid methyl ester (0.001 μM–40 μM) for 3 hours at room temperature in a 96-well plate (total volume 250 μL). The reaction was terminated by filtration using a 96-well plate harvester (Packard Filtermate 196 Harvester). Filters (Packard GF/C) were prewet with 0.3% PEI containing 0.5% BSA and washed 5 times with wash buffer (DPBS, 0.3 MnCl2, and 0.25% BSA) prior to reaction termination. After terminating the reaction, filters were washed 6 times with wash buffer, and allowed to dry overnight. Scintillation fluid (Packard's Micro Scint 20) was added to each well and radioactivity bound was determined by liquid scintillation spectrometry. Nonspecific binding was determined in the presence of 465 nM unlabeled MCP-1. The IC50's (μM) of the inhibition of the binding of the iodinated MCP-1 are set out in Table 2.
# [2] = tested on: MCP-1 response in THP-1 cells; assay: Calcium flux in THP-1 cells stimulated with human MCP-1 (FLIPR); format: cell-based; conditions: read-out: Calcium Flux IC50
# Protocol: Compounds of were evaluated for their effect on calcium flux using methodology known in the art, e.g., Neote et al., Cell 1993, 72:415–425. Briefly, THP-1 cells were incubated with the fluorescence dye FLUO-4 for 1 hour, the cells were washed after this loading period, resuspended in HANKs buffer, and loaded into a 384-well plate. The cells were then incubated in the presence of a compound of Example 1–12, 14, 18, 22–23, 27–28, 30, or [bis-(4-chloro-phenyl)-methanesulfonyl]-acetic acid methyl ester. After a 30-minute incubation period, the cells were stimulated with 33 nM human MCP-1 and the calcium flux response recorded and quantified with a FLIPR^384® (384-well Fluorometric Imaging Plate Reader) ([…], Sunnyvale, Calif.). The IC50's (μM) of the inhibition of the maximal MCP-1 response are set out in Table 1.
# [3] = 300-19 cell membranes 1.0 μg/well, 125I-MCP-1 0.15 nM, 3 hours at room temperature, read-out: IC50 of the inhibition of the binding of the iodinated MCP-1
# [4] = 0.5 h, THP-1 cells, 30-minute incubation, stimulated with 33 nM human MCP-1, inhibition of the maximal MCP-1 response
# T1 sequence (P41597 whole entry): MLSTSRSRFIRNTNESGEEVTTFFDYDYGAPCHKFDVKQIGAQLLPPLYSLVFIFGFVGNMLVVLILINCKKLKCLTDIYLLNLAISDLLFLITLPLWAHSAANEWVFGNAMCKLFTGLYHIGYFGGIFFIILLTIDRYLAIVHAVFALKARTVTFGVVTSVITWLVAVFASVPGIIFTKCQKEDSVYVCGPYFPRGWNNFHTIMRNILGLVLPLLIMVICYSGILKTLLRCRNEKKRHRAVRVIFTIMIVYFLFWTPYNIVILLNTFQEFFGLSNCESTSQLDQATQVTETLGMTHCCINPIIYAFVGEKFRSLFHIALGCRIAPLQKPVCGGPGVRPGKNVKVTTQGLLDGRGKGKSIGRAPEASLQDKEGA
Compound,melting point [°C],IC50 [1] [nM],"IC50 ([2]; Homo sapiens, THP-1, 0.5 h) [nM]","IC50 [1, 3] [nM]","IC50 [2, 4] [nM]"
O=C(COc1ccc(F)cc1F)CS(=O)(=O)C(c1ccc(Cl)cc1)c1ccc(Cl)cc1,54 to 56,–,–,–,–
C/C=C/C(=O)CS(=O)(=O)C(c1ccc(Cl)cc1)c1ccc(Cl)cc1,114 to 116,–,–,–,–
CN(C)C(=O)c1ccc(C(=O)CSC(c2ccc(Cl)cc2)c2ccc(Cl)cc2)s1,150 to 151,–,–,–,–
CC(C)(C)C(=O)CS(=O)(=O)C(c1ccc(Cl)cc1)c1ccc(Cl)cc1,128 to 130,–,–,–,–
O=C(CCc1ccccc1)CS(=O)(=O)C(c1ccc(Cl)cc1)c1ccc(Cl)cc1,106 to 107,–,–,–,–
CC(=O)CCS(=O)(=O)C(c1ccc(Cl)cc1)c1ccc(Cl)cc1,103 to 105,–,–,–,–
CC(=O)OCC(=O)CS(=O)(=O)C(c1ccc(Cl)cc1)c1ccc(Cl)cc1,57 to 60,–,–,–,–
O=C(CC(F)(F)F)CS(=O)(=O)C(c1ccc(Cl)cc1)c1ccc(Cl)cc1,48 to 50,–,–,–,–
CC(C)Cc1ccc(C(c2ccc(Cl)cc2)S(=O)(=O)CC(=O)C(F)(F)F)cc1 (stereo not shown),45 to 50,–,–,–,–
"CC(=O)CS(=O)(=O)C(c1ccc(Cl)cc1)c1ccc(Cl)cc1 [Example 1, 1-[Bis-(4-chloro-phenyl)-methanesulfonyl]-propan-2-one]",114 to 115,1150,2200,–,–
"CCC(=O)CS(=O)(=O)C(c1ccc(Cl)cc1)c1ccc(Cl)cc1 [Example 2, 1-[Bis-(4-chloro-phenyl)-methanesulfonyl]-butan-2-one]",–,7370,7650,–,–
"O=C(CBr)CS(=O)(=O)C(c1ccc(Cl)cc1)c1ccc(Cl)cc1 [Example 3, 1-[Bis-(4-chloro-phenyl)-methanesulfonyl]-3-bromo-propan-2-one]",122 to 123,–,–,165,1120
"O=C(CS(=O)(=O)C(c1ccc(Cl)cc1)c1ccc(Cl)cc1)c1ccco1 [Example 5, 2-[Bis-(4-chloro-phenyl)-methanesulfonyl]-1-furan-2-yl-ethanone]",138 to 139,–,–,2550,7250
"CC#CC(=O)CS(=O)(=O)C(c1ccc(Cl)cc1)c1ccc(Cl)cc1 [Example 6, 1-[Bis-(4-chloro-phenyl)-methanesulfonyl]-pent-3-yn-2-one]",–,–,–,–,1340
"O=C(Cc1ccccc1)CS(=O)(=O)C(c1ccc(Cl)cc1)c1ccc(Cl)cc1 [Example 9, 1-[Bis-(4-chloro-phenyl)-methanesulfonyl]-3-phenyl-propan-2-one]",54 to 56,–,–,6300,2900
"O=C(COc1ccccc1)CS(=O)(=O)C(c1ccc(Cl)cc1)c1ccc(Cl)cc1 [Example 10, 1-[Bis-(4-chloro-phenyl)-methanesulfonyl]-3-phenoxy-propan-2-one]",110 to 112,–,–,3450,984
"COc1ccc(OCC(=O)CS(=O)(=O)C(c2ccc(Cl)cc2)c2ccc(Cl)cc2)cc1 [Example 11, 1-[Bis-(4-chloro-phenyl)-methanesulfonyl]-3-(4-methoxy-phenoxy)-propan-2-one]",116 to 117,–,–,3400,4750
"O=C(COc1ccc(Cl)cc1)CS(=O)(=O)C(c1ccc(Cl)cc1)c1ccc(Cl)cc1 [Example 12, 1-[Bis-(4-chloro-phenyl)-methanesulfonyl]-3-(4-chloro-phenoxy)-propan-2-one]",105 to 107,–,–,–,8150
"COCC(=O)CS(=O)(=O)C(c1ccc(Cl)cc1)c1ccc(Cl)cc1 [Example 14, 1-[Bis-(4-chloro-phenyl)-methanesulfonyl]-3-methoxy-propan-2-one]",124 to 125,1350,3900,–,–
"Cn1ccnc1C(=O)CS(=O)(=O)C(c1ccc(Cl)cc1)c1ccc(Cl)cc1 [Example 16, 2-[Bis-(4-chloro-phenyl)-methanesulfonyl]-1-(1-methyl-1H-imidazol-2-yl)-ethanone]",160 to 161,–,–,12700,–
"CN(C)C(=O)c1ccc(C(=O)CS(=O)(=O)C(c2ccc(Cl)cc2)c2ccc(Cl)cc2)s1 [Example 18, 5-(2-[Bis-(4-chloro-phenyl)-methanesulfonyl]-acetyl)-thiophene-2-carboxylic acid dimethylamide]",192 to 194,–,–,–,5200
"O=C(CS(=O)(=O)C(c1ccc(Cl)cc1)c1ccc(Cl)cc1)c1cccs1 [Example 19, 2-[Bis-(4-chloro-phenyl)-methanesulfonyl]-1-thiophen-2-yl-ethanone]",150 to 151,–,–,6150,–
"COC(=O)CC(=O)CS(=O)(=O)C(c1ccc(Cl)cc1)c1ccc(Cl)cc1 [Example 22, 4-[Bis-(4-chloro-phenyl)-methanesulfonyl]-3-oxo-butyric acid methyl ester]",76 to 78,–,–,1270,2470
"O=C(CC(=O)Nc1ccccc1Cl)CS(=O)(=O)C(c1ccc(Cl)cc1)c1ccc(Cl)cc1 [Example 23, 4-[Bis-(4-chloro-phenyl)-methanesulfonyl]-N-(2-chloro-phenyl)-3-oxo-butyramide]",92 to 95,–,–,–,1520
"O=C(CS(=O)(=O)Cc1ccccc1)CS(=O)(=O)C(c1ccc(Cl)cc1)c1ccc(Cl)cc1 [Example 27, 1-[Bis-(4-chloro-phenyl)-methanesulfonyl]-3-phenylmethanesulfonyl-propan-2-one]",72 to 90,–,–,2700,6520
"O=S(=O)(CC(O)(O)C(F)(F)F)C(c1ccc(F)cc1)c1ccc(F)cc1 [Example 28, 3-[Bis(4-fluorophenyl)methanesulfonyl]-1,1,1-trifluoropropane-2,2-diol]",–,210,417,–,–
"O=S(=O)(CC(O)(O)C(F)(F)F)C(c1ccc(C(F)(F)F)cc1)c1ccc(C(F)(F)F)cc1 [Example 29, 3-[Bis(4-trifluoromethyl-phenyl)methanesulfonyl]-1,1,1-trifluoropropane-2,2-diol]",–,–,–,3000,–
"O=S(=O)(CC(O)(O)C(F)(F)F)C(c1ccc(Cl)cc1)c1ccc(Cl)c(Cl)c1 (stereo not shown) [Example 30, 3-[(4-Chlorophenyl)-(3,4-dichlorophenyl)methanesulfonyl]-1,1,1-trifluoropropane-2,2-diol]",–,–,–,77,393
"O=C(Cc1ccc(F)cc1)CS(=O)(=O)C(c1ccc(Cl)cc1)c1ccc(Cl)cc1 [Example 33, 1-[Bis-(4-chloro-phenyl)-methanesulfonyl]-3-(4-fluoro-phenyl)-propan-2-one]",106 to 107,–,–,14500,–
"O=C(CS(=O)(=O)C(c1ccc(Cl)cc1)c1ccc(Cl)cc1)c1ccccn1 [Example 34, 2-[Bis-(4-chloro-phenyl)-methanesulfonyl]-1-pyridin-2-yl-ethanone]",120 to 121,–,–,4250,–
